Source: PubChem BioAssay (NCI)
Where “and” joins values, the source holds several entries; their conditions need not be identical. Equal entries are not always repeated.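 Results reflect a 48-hour exposure of cells in 96-well plates to compound at five concentrations. The concentration for 50% growth inhibition is given as GI50. The concentration for full growth arrest is given as TGI.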

Tests used:
Experiment in all cases: DTP human tumour cell line panel, 48 h
MCF7 breast = tested on: MCF7 breast
SK-MEL-2 melanoma = tested on: SK-MEL-2 melanoma
RPMI-8226 leukemia = tested on: RPMI-8226 leukemia
K-562 leukemia = tested on: K-562 leukemia
SW-620 colon = tested on: SW-620 colon
MOLT-4 leukemia = tested on: MOLT-4 leukemia
CCRF-CEM leukemia = tested on: CCRF-CEM leukemia
NCI-H522 lung = tested on: NCI-H522 lung
SF-539 CNS = tested on: SF-539 CNS
SK-MEL-5 melanoma = tested on: SK-MEL-5 melanoma
SR leukemia = tested on: SR leukemia
SNB-75 CNS = tested on: SNB-75 CNS
COLO 205 colon = tested on: COLO 205 colon
SF-295 CNS = tested on: SF-295 CNS
U251 CNS = tested on: U251 CNS
ACHN renal = tested on: ACHN renal
NCI-H460 lung = tested on: NCI-H460 lung
SK-MEL-28 melanoma = tested on: SK-MEL-28 melanoma
EKVX NSCLC = tested on: EKVX NSCLC
PC-3 prostate = tested on: PC-3 prostate
HL-60(TB) leukemia = tested on: HL-60(TB) leukemia
T-47D breast = tested on: T-47D breast
HOP-62 NSCLC = tested on: HOP-62 NSCLC
A498 renal = tested on: A498 renal
IGROV1 ovarian = tested on: IGROV1 ovarian
RXF 393 renal = tested on: RXF 393 renal
SNB-19 CNS = tested on: SNB-19 CNS
A549 NSCLC = tested on: A549 NSCLC
MDA-MB-231 breast = tested on: MDA-MB-231 breast
NCI-H23 lung = tested on: NCI-H23 lung
MDA-MB-435 = tested on: MDA-MB-435
SN12C renal = tested on: SN12C renal
TK-10 renal = tested on: TK-10 renal
SF-268 CNS = tested on: SF-268 CNS
OVCAR-4 ovarian = tested on: OVCAR-4 ovarian
MALME-3M melanoma = tested on: MALME-3M melanoma
HS 578T breast = tested on: HS 578T breast
HCT-15 colon = tested on: HCT-15 colon
UO-31 renal = tested on: UO-31 renal
UACC-257 melanoma = tested on: UACC-257 melanoma
HT29 colon = tested on: HT29 colon
786-0 renal = tested on: 786-0 renal
OVCAR-8 ovarian = tested on: OVCAR-8 ovarian
CAKI-1 renal = tested on: CAKI-1 renal
SK-OV-3 ovarian = tested on: SK-OV-3 ovarian
HOP-92 NSCLC = tested on: HOP-92 NSCLC
UACC-62 melanoma = tested on: UACC-62 melanoma
LOX IMVI melanoma = tested on: LOX IMVI melanoma
KM12 colon = tested on: KM12 colon
HCC-2998 colon = tested on: HCC-2998 colon
M14 melanoma = tested on: M14 melanoma
OVCAR-5 ovarian = tested on: OVCAR-5 ovarian
OVCAR-3 ovarian = tested on: OVCAR-3 ovarian
NCI/ADR-RES ovarian = tested on: NCI/ADR-RES ovarian
HCT-116 colon = tested on: HCT-116 colon
DU-145 prostate = tested on: DU-145 prostate
BT-549 breast = tested on: BT-549 breast
NCI-H226 lung = tested on: NCI-H226 lung

Cc1ccc(NC(=O)c2ccc(CN3CC[C@H](N(C)C)C3)c(C(F)(F)F)c2)cc1Nc1nccc(-c2cncnc2)n1
GI50 (MCF7 breast): 6.63 µM and > 10 µM
TGI (MCF7 breast): 24.6 µM and > 10 µM
GI50 (SK-MEL-2 melanoma): 2.64 µM and 2.5 µM
TGI (SK-MEL-2 melanoma): 13.3 µM and > 10 µM
GI50 (RPMI-8226 leukemia): 5.08 µM and 4.4 µM
TGI (RPMI-8226 leukemia): 24 µM and > 10 µM
GI50 (K-562 leukemia): 0.00433 µM
TGI (K-562 leukemia): 5.6 µM and > 10 µM
GI50 (SW-620 colon): 6.15 µM and > 10 µM
TGI (SW-620 colon): 22.1 µM and > 10 µM
GI50 (MOLT-4 leukemia): 5.23 µM and 3.69 µM
TGI (MOLT-4 leukemia): 21.4 µM and > 10 µM
GI50 (CCRF-CEM leukemia): 7.23 µM and 4.55 µM
TGI (CCRF-CEM leukemia): 30.9 µM and > 10 µM
GI50 (NCI-H522 lung): 4.5 µM and > 10 µM
TGI (NCI-H522 lung): 13.1 µM and > 10 µM
GI50 (SF-539 CNS): 4.5 µM and 6.26 µM
TGI (SF-539 CNS): 9.34 µM and > 10 µM
GI50 (SK-MEL-5 melanoma): 3.79 µM and 4.05 µM
TGI (SK-MEL-5 melanoma): 9.07 µM and > 10 µM
GI50 (SR leukemia): 2.79 µM and 1.99 µM
TGI (SR leukemia): > 24.4 µM and 5.04 µM
GI50 (SNB-75 CNS): 10.3 µM and > 10 µM
TGI (SNB-75 CNS): 22.8 µM and > 10 µM
GI50 (COLO 205 colon): 0.331 µM and 0.423 µM
TGI (COLO 205 colon): 6.65 µM and > 10 µM
GI50 (SF-295 CNS): 4.85 µM and > 10 µM
TGI (SF-295 CNS): 12.5 µM and > 10 µM
GI50 (U251 CNS): 6.28 µM and 6.5 µM
TGI (U251 CNS): 17.3 µM and > 10 µM
GI50 (ACHN renal): 4.04 µM and 8.38 µM
TGI (ACHN renal): 14.8 µM and > 10 µM
GI50 (NCI-H460 lung): 2.99 µM and 8.15 µM
TGI (NCI-H460 lung): 9.95 µM and > 10 µM
GI50 (SK-MEL-28 melanoma): 0.798 µM and 0.635 µM
TGI (SK-MEL-28 melanoma): 5.53 µM and > 10 µM
GI50 (EKVX NSCLC): 14.6 µM and > 10 µM
TGI (EKVX NSCLC): 40 µM and > 10 µM
GI50 (PC-3 prostate): 13.4 µM and > 10 µM
TGI (PC-3 prostate): 35 µM and > 10 µM
GI50 (HL-60(TB) leukemia): 5.85 µM and 0.758 µM
TGI (HL-60(TB) leukemia): 22.6 µM and > 10 µM
GI50 (T-47D breast): 5.16 µM and > 10 µM
TGI (T-47D breast): 12.2 µM and > 10 µM
GI50 (HOP-62 NSCLC): 9.83 µM and 9.62 µM
TGI (HOP-62 NSCLC): 24.5 µM and > 10 µM
GI50 (A498 renal): 12.1 µM and > 10 µM
TGI (A498 renal): 27.1 µM and > 10 µM
GI50 (IGROV1 ovarian): 7.21 µM and 5.14 µM
TGI (IGROV1 ovarian): 24.8 µM and > 10 µM
GI50 (RXF 393 renal): 11.9 µM and 9.4 µM
TGI (RXF 393 renal): 27 µM and > 10 µM
GI50 (SNB-19 CNS): 10.9 µM and > 10 µM
TGI (SNB-19 CNS): 31.7 µM and > 10 µM
GI50 (A549 NSCLC): 11.3 µM and > 10 µM
TGI (A549 NSCLC): 28.5 µM and > 10 µM
GI50 (MDA-MB-231 breast): 1.42 µM and 1.98 µM
TGI (MDA-MB-231 breast): 7.82 µM and > 10 µM
GI50 (NCI-H23 lung): 5.61 µM and 8.08 µM
TGI (NCI-H23 lung): 26.5 µM and > 10 µM
GI50 (MDA-MB-435): 1.73 µM and 3.1 µM
TGI (MDA-MB-435): 15.6 µM and > 10 µM
GI50 (SN12C renal): 14.2 µM and > 10 µM
TGI (SN12C renal): 34.4 µM and > 10 µM
GI50 (TK-10 renal): 15 µM and > 10 µM
TGI (TK-10 renal): 28.4 µM and > 10 µM
GI50 (SF-268 CNS): 10.4 µM and > 10 µM
TGI (SF-268 CNS): 28.5 µM and > 10 µM
GI50 (OVCAR-4 ovarian): 10.9 µM and > 10 µM
TGI (OVCAR-4 ovarian): 30.1 µM and > 10 µM
GI50 (MALME-3M melanoma): 0.217 µM and 0.402 µM
GI50 (HS 578T breast): 7.62 µM and 2.23 µM
TGI (HS 578T breast): 35.6 µM and > 10 µM
GI50 (HCT-15 colon): 4.47 µM and 5.13 µM
TGI (HCT-15 colon): 23.5 µM and > 10 µM
GI50 (UO-31 renal): 6.69 µM and 5.17 µM
TGI (UO-31 renal): 21.9 µM and > 10 µM
GI50 (UACC-257 melanoma): 1.44 µM and 1.14 µM
TGI (UACC-257 melanoma): 6.74 µM and 3.53 µM
GI50 (HT29 colon): 0.606 µM and 0.637 µM
TGI (HT29 colon): 15.7 µM and > 10 µM
GI50 (786-0 renal): 6.11 µM and 6.67 µM
TGI (786-0 renal): 14.9 µM and > 10 µM
GI50 (OVCAR-8 ovarian): 13.8 µM and > 10 µM
TGI (OVCAR-8 ovarian): 36.1 µM and > 10 µM
GI50 (CAKI-1 renal): 9.06 µM and > 10 µM
TGI (CAKI-1 renal): 27.4 µM and > 10 µM
GI50 (SK-OV-3 ovarian): 16 µM and > 10 µM
TGI (SK-OV-3 ovarian): 32.1 µM and > 10 µM
GI50 (HOP-92 NSCLC): 5.1 µM and 1.66 µM
TGI (HOP-92 NSCLC): 22 µM and > 10 µM
GI50 (UACC-62 melanoma): 1.05 µM and 0.387 µM
TGI (UACC-62 melanoma): 15.7 µM and > 10 µM
GI50 (LOX IMVI melanoma): 0.936 µM and 0.952 µM
TGI (LOX IMVI melanoma): 7.14 µM and > 10 µM
GI50 (KM12 colon): 6.65 µM and > 10 µM
TGI (KM12 colon): 23.5 µM and > 10 µM
GI50 (HCC-2998 colon): 10.8 µM and > 10 µM
TGI (HCC-2998 colon): 28 µM and > 10 µM
GI50 (M14 melanoma): 0.425 µM and 0.668 µM
TGI (M14 melanoma): 4.9 µM and > 10 µM
GI50 (OVCAR-5 ovarian): 5.5 µM and 6.04 µM
TGI (OVCAR-5 ovarian): 24.2 µM and > 10 µM
GI50 (OVCAR-3 ovarian): 6.12 µM and 8.64 µM
TGI (OVCAR-3 ovarian): 20.5 µM and > 10 µM
GI50 (NCI/ADR-RES ovarian): 12.5 µM and > 10 µM
TGI (NCI/ADR-RES ovarian): 45.1 µM and > 10 µM
GI50 (HCT-116 colon): 1.62 µM and 2.61 µM
TGI (HCT-116 colon): 9.9 µM and > 10 µM
GI50 (DU-145 prostate): 12 µM and > 10 µM
TGI (DU-145 prostate): 29.6 µM and > 10 µM
GI50 (BT-549 breast): 5.96 µM and > 10 µM
TGI (BT-549 breast): 13.3 µM and > 10 µM
GI50 (NCI-H226 lung): 15.2 µM and > 10 µM
TGI (NCI-H226 lung): 36.6 µM and > 10 µM
